Test [1] concerns the target T1, EML4-ALK-BaF3 (Homo sapiens, UniProt Q9UM73).
T1 construct: EML4 (echinoderm microtubule associated protein like 4, Q9HC35) fusion partner; expressed in transfected cells; host or cells: BaF3; the other entry of the earlier key: EML4 (Q9HC35, Echinoderm microtubule-associated protein-like 4)
The test is described as follows: Growth inhibition of BaF3 cells stably transfected with kinase EML4-ALK (MTS). The class given is cell-based. The settings on record: compound concentration 3.3 μM, read-out: cell growth inhibition rate, EML4-ALK. As to the method: (§1) The specific test method is given as follows:
(§2) 2) Reagent: MTS reaction solution (containing 2 mg/mL of MTS [3-(4,5-dimethylthiazol-2-yl)-5-(3-carboxymethoxyphenyl)-2-(4-sulfophenyl)-2H-tetra zolium, inner Salt]; 100 µg/mL PES ([…])).

In test [2] the target is T2, NPM-ALK-BaF3 (Homo sapiens, UniProt Q9UM73).
T2 construct: NPM (nuclear phosphoprotein / nucleophosmin, NPM1, P06748) fusion partner; expressed in transfected cells; host or cells: BaF3; the other entry of the earlier key: NPM1 (P06748, Nucleophosmin)
T2 sequence (Q9UM73 with tags, fused parts or gaps): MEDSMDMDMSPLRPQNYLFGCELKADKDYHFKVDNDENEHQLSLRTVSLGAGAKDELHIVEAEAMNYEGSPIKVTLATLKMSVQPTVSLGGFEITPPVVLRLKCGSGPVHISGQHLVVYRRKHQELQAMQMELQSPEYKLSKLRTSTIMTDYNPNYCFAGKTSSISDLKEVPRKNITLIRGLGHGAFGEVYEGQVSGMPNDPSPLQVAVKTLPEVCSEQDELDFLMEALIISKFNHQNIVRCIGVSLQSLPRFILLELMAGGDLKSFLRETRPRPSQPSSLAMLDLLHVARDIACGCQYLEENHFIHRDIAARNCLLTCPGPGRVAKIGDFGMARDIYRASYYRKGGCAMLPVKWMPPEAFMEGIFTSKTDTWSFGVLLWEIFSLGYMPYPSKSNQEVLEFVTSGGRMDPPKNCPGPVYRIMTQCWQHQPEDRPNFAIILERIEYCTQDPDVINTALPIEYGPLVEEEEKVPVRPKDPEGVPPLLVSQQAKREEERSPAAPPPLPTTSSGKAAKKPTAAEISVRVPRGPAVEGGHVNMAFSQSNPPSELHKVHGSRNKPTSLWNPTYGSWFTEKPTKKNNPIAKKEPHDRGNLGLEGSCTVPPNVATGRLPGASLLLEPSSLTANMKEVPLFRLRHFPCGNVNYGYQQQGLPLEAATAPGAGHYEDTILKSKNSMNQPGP
The test can be described thus: Growth inhibition of BaF3 cells stably transfected with kinase NPM-ALK (MTS). The class given is cell-based. The following applies: compound concentration 3.3 μM, read-out: cell growth inhibition rate, NPM-ALK. As to the method: as §1, §2

A value given as a limit tells only on which side of the number the result lay.

T1 sequence (Q9UM73 1058-1620 limits assumed): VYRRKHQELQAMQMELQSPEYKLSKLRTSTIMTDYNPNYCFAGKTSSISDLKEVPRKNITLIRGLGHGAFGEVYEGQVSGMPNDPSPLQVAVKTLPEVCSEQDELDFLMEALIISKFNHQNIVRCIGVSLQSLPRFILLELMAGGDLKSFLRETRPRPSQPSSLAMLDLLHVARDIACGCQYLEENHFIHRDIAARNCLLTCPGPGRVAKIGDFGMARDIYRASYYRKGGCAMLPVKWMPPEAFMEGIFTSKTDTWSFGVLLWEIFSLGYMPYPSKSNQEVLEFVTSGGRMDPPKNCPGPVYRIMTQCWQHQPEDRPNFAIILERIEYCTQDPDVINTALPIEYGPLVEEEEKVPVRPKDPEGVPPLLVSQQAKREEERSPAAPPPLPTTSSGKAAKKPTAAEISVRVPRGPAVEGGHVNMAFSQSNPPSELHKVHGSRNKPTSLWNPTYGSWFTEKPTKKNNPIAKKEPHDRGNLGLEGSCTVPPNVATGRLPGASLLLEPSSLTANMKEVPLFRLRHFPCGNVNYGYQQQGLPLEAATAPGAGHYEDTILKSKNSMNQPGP

In the case of `COc1cc2c(cc1Nc1nc(Nc3ccccc3S(C)(=O)=O)c3sccc3n1)N(C(=O)CN(C)C)CC2` [IA-1], the inhibition at 3.3 µM in test [1] turned out to be 94.9%; in test [2] it was 87.6%.
Taken in the same sequence, the figures for `COc1cc(N2CCC(N3CCN(C)CC3)CC2)ccc1Nc1nc(Nc2ccccc2S(C)(=O)=O)c2sccc2n1` [IA-2] were 98.9% and 87.6%.
Regarding `COc1cc(N2CCC(N3CCCC3)CC2)ccc1Nc1nc(Nc2ccccc2S(C)(=O)=O)c2sccc2n1` [IA-3], the values for the inhibition at 3.3 µM in test [1] and in test [2] were 99.8% and 92.7%, respectively.
Taken in the same sequence, the figures for `COc1cc(N2CCN(C)CC2)ccc1Nc1nc(Nc2ccccc2S(C)(=O)=O)c2sccc2n1` [IA-4] were 99.6% and 86%.
In the case of `COc1cc(N2CCC(N3CCN(C)CC3)CC2)ccc1Nc1nc(Nc2ccccc2S(=O)(=O)C(C)C)c2sccc2n1` [IB-2], the figures for the inhibition at 3.3 µM in test [1] and in test [2] were 82.9% and 94.4%, respectively.
Taken in the same sequence, the figures for `COC(=O)c1cccc(Nc2nc(Nc3ccc(N4CCC(N5CCCC5)CC4)cc3OC)nc3ccsc23)c1` [ID-4] were 98.5% and 90.7%.
With `COC(=O)c1cccc(Nc2nc(Nc3cc(C)c(C4CCN(C)CC4)cc3OC(C)C)nc3ccsc23)c1` [ID-5], the inhibition at 3.3 µM in test [1] is greater than 99%; in test [2], 93.9%.
The matching figures for `COC(=O)c1cccc(Nc2nc(Nc3cc(C)c(C4CCN(C)CC4)cc3OC)nc3ccsc23)c1` [ID-6]: 99.9% and -24.1%.
The matching figures for `COC(=O)c1ccccc1Nc1nc(Nc2ccc(N3CCC(N4CCN(C)CC4)CC3)cc2OC)nc2ccsc12` [IE-1]: 97% and 69.5%.
Taken in the same sequence, the figures for `COC(=O)c1ccccc1Nc1nc(Nc2ccc(N3CCC(O)CC3)cc2)nc2ccsc12` [IE-2] were 98.2% and 50.5%.
Consider `COC(=O)c1ccccc1Nc1nc(Nc2ccc(N3CCN(C)CC3)cc2OC)nc2ccsc12` [IE-3], for which the inhibition at 3.3 µM in test [1] stood at 96.7%; in test [2], 85.5%.
The matching figures for `COC(=O)c1ccccc1Nc1nc(Nc2ccc(N3CCC(N4CCN(C)CC4)CC3)cc2)nc2ccsc12` [IE-4]: 96.7% and 93.6%.
The matching figures for `COC(=O)c1ccccc1Nc1nc(Nc2ccc(N3CCC(N4CCCC4)CC3)cc2OC)nc2ccsc12` [IE-5]: 99% and 87.6%.
Taken in the same sequence, the figures for `CCOc1cc(N2CCN(C)CC2)ccc1Nc1nc(Nc2ccccc2C(=O)OC)c2sccc2n1` [IE-6] were 98.5% and 0%.
Take `COC(=O)c1ccccc1Nc1nc(Nc2cc(C)c(C3CCN(C)CC3)cc2OC(C)C)nc2ccsc12` [IE-7]: the inhibition at 3.3 µM is 98.8% in test [1] and 86.1% in test [2].
For the compound `COC(=O)c1ccccc1Nc1nc(Nc2cc(C)c(C3CCN(C)CC3)cc2OC)nc2ccsc12` [IE-8], the inhibition at 3.3 µM in test [1] worked out at 98%; in test [2] it was 84.2%.
The matching figures for `CNC(=O)c1cccc(F)c1Nc1nc(Nc2cc3c(cc2OC)CCN3C(=O)CN(C)C)nc2ccsc12` [IF-1]: greater than 99% and 6.16%.
Taken in the same sequence, the figures for `CNC(=O)c1cccc(F)c1Nc1nc(Nc2ccc(N3CCC(N4CCN(C)CC4)CC3)cc2OC)nc2ccsc12` [IF-2] were 3.41% and 2.77%.
On to `CNC(=O)c1cccc(F)c1Nc1nc(Nc2ccc(N3CCN(C)CC3)cc2OC)nc2ccsc12` [IF-3], for which the inhibition at 3.3 µM turned out to be 87.1% in test [1] and 12% in test [2].
Regarding `COc1cc(C2CCN(C)CC2)c(C)cc1Nc1nc(Nc2cccc(NS(C)(=O)=O)c2)c2sccc2n1` [IG-4], the inhibition at 3.3 µM in test [1] amounted to 97.8%; in test [2] it was 87.6%.
The matching figures for `COc1cc(N2CCC(N3CCCC3)CC2)ccc1Nc1nc(Nc2cccc(NS(C)(=O)=O)c2)c2sccc2n1` [IG-5]: greater than 99% and 10.9%.
The matching figures for `COc1cc(C2CCN(C)CC2)c(C)cc1Nc1nc(Nc2ccccc2NS(C)(=O)=O)c2sccc2n1` [IH-5]: 98% and 84.2%.
Taken in the same sequence, the figures for `COc1cc(N2CCC(N3CCCC3)CC2)ccc1Nc1nc(Nc2ccccc2NS(C)(=O)=O)c2sccc2n1` [IH-6] were 97.8% and 84.5%.
With `CNC(=O)c1ccccc1Nc1nc(Nc2ccc(N3CCC(N4CCN(C)CC4)CC3)cc2)nc2ccsc12` [II-6], the inhibition at 3.3 µM in test [1] was 92.9%; in test [2], 36.9%.
`COc1cc(N2CCC(N(C)C)CC2)ccc1Nc1nc(Nc2ccccc2C(=O)NC(C)C)c2sccc2n1` [IP-3]: the inhibition at 3.3 µM in test [1] was found to be 99.1%.
Still for that read-out and setting: with `COc1cc2c(cc1Nc1nc(Nc3ccccc3C(=O)N(C)C)c3sccc3n1)N(C(=O)CN(C)C)CC2` [IQ-1] the figure was 96.9%.
In the case of `COc1cc2c(cc1Nc1nc(Nc3ccccc3P(=O)(C(C)C)C(C)C)c3sccc3n1)N(C(=O)CN(C)C)CC2` [IR-1], the inhibition at 3.3 µM in test [1] is 97.5%.
Same read-out and setting: the result for `COc1cc(N2CCC(N3CCCC3)CC2)ccc1Nc1nc(Nc2ccccc2P(=O)(C(C)C)C(C)C)c2sccc2n1` [IR-2] reads 96.3%; that for `COc1cc(N2CCN(C)CC2)ccc1Nc1nc(Nc2ccccc2P(=O)(C(C)C)C(C)C)c2sccc2n1` [IR-3], 99.2%.
On the same count and under the same terms, with `COc1cc(N2CCC(N3CCN(C)CC3)CC2)ccc1Nc1nc(Nc2ccccc2P(=O)(C(C)C)C(C)C)c2sccc2n1` [IR-4] the figure was 98.4%; with `COc1cc(N2CCC(N(C)C)CC2)ccc1Nc1nc(Nc2ccccc2P(=O)(C(C)C)C(C)C)c2sccc2n1` [IR-5], 98.3%; with `CC(C)P(=O)(c1ccccc1Nc1nc(Nc2ccc(N3CCN(C)CC3)cc2)nc2ccsc12)C(C)C` [IR-6], 98.3%.
Still for that read-out and setting: the result for `CCP(=O)(CC)c1ccccc1Nc1nc(Nc2cc3c(cc2OC)CCN3C(=O)CN(C)C)nc2ccsc12` [IS-1] reads 98.7%; that for `CCP(=O)(CC)c1ccccc1Nc1nc(Nc2ccc(N3CCC(N4CCCC4)CC3)cc2OC)nc2ccsc12` [IS-2], 98.2%; that for `CCP(=O)(CC)c1ccccc1Nc1nc(Nc2ccc(N3CCC(N4CCN(C)CC4)CC3)cc2OC)nc2ccsc12` [IS-3], 101%.
For `CCP(=O)(CC)c1ccccc1Nc1nc(Nc2ccc(N3CCN(C)CC3)cc2OC)nc2ccsc12` [IS-4], in test [1], the inhibition at 3.3 µM turned out to be 103%.
The same measure, in the same setting: with `CCP(=O)(CC)c1ccccc1Nc1nc(Nc2ccc(N3CCN(C)CC3)cc2)nc2ccsc12` [IS-5] the figure was 103%; with `CCP(=O)(CC)c1ccccc1Nc1nc(Nc2ccc(N3CCC(N(C)C)CC3)cc2OC)nc2ccsc12` [IS-6], 99.5%.
The same measure, in the same setting: the result for `COc1cc2c(cc1Nc1nc(OCc3ccccc3S(=O)(=O)C(C)C)c3sccc3n1)N(C(=O)CN(C)C)CC2` [IT-1] reads 99.8%.
Still for that read-out and setting: the result for `COc1cc(N2CCC(N3CCN(C)CC3)CC2)ccc1Nc1nc(OCc2ccccc2S(=O)(=O)C(C)C)c2sccc2n1` [IT-3] reads 87.8%.
Regarding `CC(C)S(=O)(=O)c1ccccc1COc1nc(Nc2ccc(N3CCOCC3)cc2)nc2ccsc12` [IT-4], the inhibition at 3.3 µM in test [1] worked out at 100%.
The same measure, in the same setting: the result for `COc1cc(N2CCC(N(C)C)CC2)ccc1Nc1nc(OCc2ccccc2S(=O)(=O)C(C)C)c2sccc2n1` [IT-5] reads 101%.

What is called inhibition is the drop in the measured response relative to a control, in per cent.
